The text below walks through data of patent publication US9890147B2 (BAYER PHARMA AKTIENGESELLSCHAFT, priority 2012, dated 2018).

For one test, the system named is MOLP-8 cells. Briefly: Cell proliferation assay (alamarBlue), MOLP-8. The class given is cell-based. To be noted: Homo sapiens, 120 hours incubation, inhibition of cell proliferation. The procedure, abridged: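 MOLP-8 cells in RPMI1640 with 20% FCS, 4000 cells/well, treated overnight after seeding with substance at 1E-5 to 1E-8 M for 120 h at 37° C. Viability read by alamarBlue fluorescence (ex 530, em 590); pre-treatment values subtracted, compared with buffer-only cells to derive IC50.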
Background: The colour change of resazurin is a common sign of viable cells or microbes.

Another test concerns LOX-IMVI cells. Briefly: Cell proliferation assay (alamarBlue), LOX-IMVI. The class given is cell-based. To be noted: Homo sapiens, 72 hours incubation, inhibition of cell proliferation. The procedure, abridged:
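Cells seeded at 1000/well in RPMI1640 with 10% FCS, incubated overnight at 37° C, then treated with dilutions from 1E-5 to 1E-8 M for 72 h. Viability read by alamarBlue fluorescence (ex 530/em 590 nm); pre-treatment values subtracted and compared with buffer-only cells to derive IC50.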

For a further test, the system named is B16F10 cells. Briefly: Cell proliferation assay (alamarBlue), B16F10. The class given is cell-based. As to conditions: Mus musculus, B16-F10, 96 hours incubation, inhibition of cell proliferation. The procedure: (§1) In accordance with the invention, the capability of the substances to inhibit cell proliferation was determined Cell viability was determined using the alamarBlue® reagent (Invitrogen) in a Victor X3 Multilabel Reader (Perkin Elmer). The excitation wavelength was 530 nm and the emission wavelenth […].
The B16F10 cells (ATCC, CRL-6475) were sown at a concentration of 300-500 cells/well in 100 μl growth medium (DMEM with phenol red, 10% FCS) on 96-well microtitre plates.
(§2) After an overnight incubation at 37° C., the fluorescence values (CI values) were determined. The plates were then treated with various substance dilutions (1E-5 M, 3E-6 M, 1E-6M, 3E-7 M, 1E-7 M, 3E-8 M, 1E-8 M) and incubated at 37° C. for 72 (MV4-11-, LOX-IMVI cells), 96 (MOLM-13-, B16F10-, MDA-MB-431-, Caov-3 cells), 120 (MOLP-8-, KMS-12-PE cells) or 168 (LAPC-4 cells) hours. The fluorescence values (CO values) were then determined. For the data analysis, the CI values were subtracted from the CO values and the results were compared between cells treated with different dilutions of the substance or with buffer solution only. These were used to calculate the IC 50 values (substance concentration required for 50% inhibition of cell proliferation).

A further test concerns MDA-MB-231 cells. Briefly: Cell proliferation assay (alamarBlue), MDA-MB-231. It counts as cell-based. To be noted: Homo sapiens; inhibition of cell proliferation, MDA-MB-231 (breast carcinoma), 96 hours. On the procedure:
as §1
The MDA-MB-231 cells (DSMZ, ACC 732) were sown at a concentration of 4000 cells/well in 100 μl growth medium (DMEM/Ham's F12 medium, 10% FCS) on 96-well microtitre plates. The Caov-3 cells (ATCC, HTB-75) were sown at a concentration of 2000 cells/well in 100 μl growth medium (MEM Earle's medium, 10% FCS) on 96-well microtitre plates.
as §2

Another test concerns KMS-12-PE cells. Briefly: Cell proliferation assay (alamarBlue), KMS-12-PE. To be noted: Homo sapiens, 120 hours incubation, inhibition of cell proliferation. The class given is cell-based. The procedure, abridged: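 KMS-12-PE myeloma cells in RPMI1640 with 20% FCS were exposed to compound (1E-5 to 1E-8 M) for 120 h at 37° C. AlamarBlue fluorescence (ex 530, em 590 nm) read before and after treatment; the difference versus buffer-treated cells gave IC50.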

A further test has as its system Caov-3 cells. Briefly: Cell proliferation assay (alamarBlue), Caov-3. It counts as cell-based. To be noted: Homo sapiens; inhibition of cell proliferation, Caov-3 (ovarian carcinoma), 96 hours. The procedure, abridged: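 Caov-3 (MEM Earle's, 10% FCS, 2000 cells/well) and MDA-MB-231 (DMEM/Ham's F12, 10% FCS, 4000 cells/well) were treated after overnight attachment with 1E-5 to 1E-8 M compound. Caov-3 exposure was 96 h. alamarBlue fluorescence (ex 530, em 590 nm) was read after background subtraction of day-0 values, and IC50 calculated versus buffer-treated cells.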

The target of another test is T1, BRD4 (BD1) (Homo sapiens, UniProt O60885).
T1 construct: with relatively long constructs also being possible, preferably amino acids 44-168; made in house; host or cells: E. coli
Briefly: Binding assay BRD4/acetylated peptide H4 (TR-FRET protein-protein interaction assay). The procedure, abridged: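 His6-BRD4 BD1 (aa 67-152, E. coli), usually 10 nM, with biotinylated tetra-acetylated H4 peptide in HEPES pH 7.5 buffer; 11 compound concentrations 0.1 nM–20 μM in duplicate, 10 min preincubation, 1 h at 22 °C then ≥3 h at 4 °C. TR-FRET 665/620 ratio; IC50 by 4-parameter fit.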
(In general: TR-FRET usually uses a lanthanide donor and a delayed reading to cut background.)

The next test concerns MOLM-13 cells. Briefly: Cell proliferation assay (alamarBlue), MOLM-13. It counts as cell-based. As to conditions: Homo sapiens, 96 hours incubation, inhibition of cell proliferation. The procedure, abridged: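 Cells in RPMI1640/10% FCS read by alamarBlue fluorescence (ex 530, em 590 nm) after overnight 37 °C incubation, then treated at 1E-5 to 1E-8 M for 96 h. Pre-treatment values subtracted from endpoint values and compared with buffer-only wells; IC50 is 50% proliferation inhibition.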

For another test, the system named is MV4-11 cells. Briefly: Cell proliferation assay (alamarBlue), MV4-11. It counts as cell-based. As to conditions: Homo sapiens, 72 hours incubation, inhibition of cell proliferation. The procedure, abridged: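 Cells seeded at 5000/well in RPMI1640 + 10% FCS, incubated overnight at 37° C, then treated with compound (1E-5 to 1E-8 M) for 72 h at 37° C. Viability by alamarBlue fluorescence (ex 530/em 590 nm); pre-treatment readings subtracted, IC50 derived versus buffer-treated cells.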

A further test concerns LAPC-4 cells. Briefly: Cell proliferation assay (alamarBlue), LAPC-4. As to conditions: Homo sapiens, LAPC4; inhibition of cell proliferation, LAPC-4 (prostate cancer), 1 nM methyltrienolone, 168 hours. It counts as cell-based. On the procedure: as §1
The LAPC-4 cells (ATCC, PTA-1441TM) were sown at a concentration of 4000 cells/well in 100 μl growth medium (RPMI1640, 2 mM L-glutamine, 10% cFCS) on 96-well microtitre plates. A day later, the LAPC-4 cells were treated with 1 nM methyltrienolone and various substance dilutions.
as §2

pIC50: −log10 of the molar value.

The term pIC50 denotes −log10 of the IC50, conventionally taken in molar units. Read a high pIC50 as a low IC50. Consider `CNC(=O)N1N=C(c2ccc(-c3c(C)noc3C)cc2)c2cc(OC)c(OC)cc2CC1C` (racemic) [Example 2, (±)-1-[4-(3,5-Dimethyl-4-isoxazolyl)phenyl]-7,8-dimethoxy-N,4-dimethyl-4,5-dihydro-3H-2,3-benzodiazepine-3-carboxamide], for which the negative logarithm of the IC50 (pIC50) was 6.92 in the test on MOLP-8 cells; 6.37 in the test on LOX-IMVI cells; 6.74 in the test on B16F10 cells; 6.51 in the test with MDA-MB-231 cells; 7.05 in the test on KMS-12-PE cells; 6.51 with Caov-3 cells. The negative logarithm of the IC50 (pIC50) on BRD4 (BD1) was 7.10; in the test with MOLM-13 cells it was 6.77; in the test on MV4-11 cells, 6.96; in the test with LAPC-4 cells, 6.62.
Take `CNC(=O)N1N=C(c2ccc(-c3ccc(C(=O)O)s3)cc2)c2cc(OC)c(OC)cc2CC1C` (racemic) [Example 5, (±)-5-(4-{7,8-dimethoxy-4-methyl-3-[(methylamino)carbonyl]-4,5-dihydro-3H-2,3-benzodiazepin-1-yl}phenyl)thiophene-2-carboxylic acid]: the negative logarithm of the IC50 (pIC50) is 6.16 in the test on B16F10 cells; 5.87 with MDA-MB-231 cells; 7.52 on BRD4 (BD1); 6.09 in the test on MOLM-13 cells; 6.57 in the test on LAPC-4 cells.
For `CNC(=O)N1N=C(c2ccc(Cl)cc2)c2cc(-c3ccncc3)ccc2CC1C` (racemic) [Example 8, (±)-1-(4-Chlorophenyl)-N,4-dimethyl-8-(pyridin-4-yl)-4,5-dihydro-3H-2,3-benzodiazepine-3-carboxamide], the pIC50 in the test with B16F10 cells was 6.72; in the test with MDA-MB-231 cells it was 6.55; on BRD4 (BD1) it was 7.05; with MOLM-13 cells it was 6.42; with LAPC-4 cells it was 6.74.
`CNC(=O)N1N=C(c2ccc(Cl)cc2)c2cc(C3CC3)ccc2CC1C` (racemic) [Example 9, (±)-1-(4-chlorophenyl)-8-cyclopropyl-N,4-dimethyl-4,5-dihydro-3H-2,3-benzodiazepine-3-carboxamide]: the pIC50 is 6.27 with B16F10 cells; 6.14 in the test on MDA-MB-231 cells; 6.92 on BRD4 (BD1); 6.19 in the test with MOLM-13 cells; 6.37 with LAPC-4 cells.
On to `CNC(=O)N1N=C(c2ccc(Cl)cc2)c2cc(-c3ccc(S(=O)(=O)NC)cc3)ccc2CC1C` (racemic) [Example 10, (±)-1-(4-chlorophenyl)-N,4-dimethyl-8-{4-[(methylamino)sulphonyl]phenyl}-4,5-dihydro-3H-2,3-benzodiazepine-3-carboxamide], for which the pIC50 was 6.57 in the test with B16F10 cells; 6.59 in the test with MDA-MB-231 cells; 6.80 on BRD4 (BD1); 6.51 in the test on MOLM-13 cells; 6.92 in the test with LAPC-4 cells.
Turning to `CNC(=O)N1N=C(c2ccc(Cl)cc2)c2cc(N3CCOCC3)ccc2CC1C` (racemic) [Example 11, (±)-1-(4-Chlorophenyl)-N,4-dimethyl-8-(morpholin-4-yl)-4,5-dihydro-3H-2,3-benzodiazepine-3-carboxamide], the negative logarithm of the IC50 (pIC50) in the test on B16F10 cells is 5.95; in the test on MDA-MB-231 cells, 5.59; at BRD4 (BD1), 6.51; with MOLM-13 cells it was 5.72; with LAPC-4 cells it was 6.35.
`CNC(=O)N1N=C(c2ccc(Cl)cc2)c2cc(N3CCN(C)CC3)ccc2CC1C` (racemic) [Example 12, (±)-1-(4-Chlorophenyl)-N,4-dimethyl-8-(4-methylpiperazin-1-yl)-4,5-dihydro-3H-2,3-benzodiazepine-3-carboxamide]: the pIC50 in the test with B16F10 cells is 5.88; in the test with MDA-MB-231 cells, 5.73; at BRD4 (BD1), 6.27; with MOLM-13 cells, 5.79; in the test with LAPC-4 cells, 6.06.
With `CNC(=O)N1N=C(c2ccc(Cl)cc2)c2cc(N3CCCCC3)ccc2CC1C` (racemic) [Example 13], the pIC50 in the test with B16F10 cells is 6.04; in the test on MDA-MB-231 cells, 5.89; on BRD4 (BD1), 6.68; in the test on MOLM-13 cells, 5.84; with LAPC-4 cells, 6.05.
On to `CNC(=O)N1N=C(c2cccnc2)c2cc(OC)ccc2CC1C` (racemic) [Example 14, (±)-8-Methoxy-N,4-dimethyl-1-(pyridin-3-yl)-4,5-dihydro-3H-2,3-benzodiazepine-3-carboxamide], for which the pIC50 was 5.58 in the test on B16F10 cells; 5.44 with MDA-MB-231 cells; 6.23 at BRD4 (BD1); 5.51 with MOLM-13 cells; 5.78 with LAPC-4 cells.
With `CNC(=O)N1N=C(c2ccc(Cl)cc2)c2cc(OC(F)(F)F)ccc2C[C@@H]1C` [Example 1.1, (4S)-1-(4-Chlorophenyl)-N,4-dimethyl-8-(trifluoromethoxy)-4,5-dihydro-3H-2,3-benzodiazepine-3-carboxamide], the pIC50 in the test on MOLP-8 cells was 6.29; in the test with B16F10 cells, 6.41; with MDA-MB-231 cells it was 6.28; at BRD4 (BD1), 7.22; in the test on MOLM-13 cells it was 6.41; in the test on LAPC-4 cells, 6.22.
As for `CNC(=O)N1N=C(c2ccc(Cl)cc2)c2cc(OC(F)(F)F)ccc2C[C@H]1C` [Example 1.2, (4R)-1-(4-Chlorophenyl)-N,4-dimethyl-8-(trifluoromethoxy)-4,5-dihydro-3H-2,3-benzodiazepine-3-carboxamide], the negative logarithm of the IC50 (pIC50) in the test on B16F10 cells was less than 5.00; in the test with MDA-MB-231 cells, less than 5.00; on BRD4 (BD1) it was 5.60; in the test on MOLM-13 cells it was less than 5.00; in the test with LAPC-4 cells it was 5.29.
As for `CNC(=O)N1N=C(c2ccc(-c3c(C)noc3C)cc2)c2cc(OC)c(OC)cc2C[C@H]1C` [Example 2.1, (4R)-1-[4-(3,5-Dimethyl-4-isoxazolyl)phenyl]-7,8-dimethoxy-N,4-dimethyl-4,5-dihydro-3H-2,3-benzodiazepine-3-carboxamide], the pIC50 with B16F10 cells was 5.98; in the test with MDA-MB-231 cells, 5.86; on BRD4 (BD1), 6.60; with MOLM-13 cells, 5.82; with LAPC-4 cells, 6.15.
For `CNC(=O)N1N=C(c2ccc(N3CCOCC3=O)cc2)c2cc(OC)c(OC)cc2C[C@@H]1C` [Example 40.1, (4S)-7,8-dimethoxy-N,4-dimethyl-1-[4-(3-oxomorpholin-4-yl)phenyl]-4,5-dihydro-3H-2,3-benzodiazepine-3-carboxamide], the pIC50 in the test with MOLP-8 cells was 6.23; with LOX-IMVI cells it was 6.48; in the test on B16F10 cells, 6.10; in the test with MDA-MB-231 cells, 5.89; with KMS-12-PE cells it was 7.10; at BRD4 (BD1), 6.92. Besides, the pIC50 with MOLM-13 cells was 6.02; in the test with MV4-11 cells, 6.12; in the test with LAPC-4 cells, 6.54.
